Data from PubChem BioAssay AID1918991 (Molecular Pharmacology Branch, DTP, NCI, 2023).

Test system: 186277-243-T-J2-PDC complex spheroid growth
Experiment: Anticancer human tumor 186277-243-T-J2-PDC patient-derived colon adenocarcinoma cell line growth inhibition [AhR]
Conditions: for IC50: curve of first compound; for viability, T/C: stronger effect = lower value
Summary of the method: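 Agents were dosed in half-log steps down from roughly clinical Cmax, or from 10 microM where Cmax was unknown, alone and with AhR antagonists. Read-out: percent test/control growth of tumor spheroids containing HUVEC and MSC stromal cells.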

[1] = second compound 0.1 µM, first compound 0.000949 µM
[2] = second compound 0.1 µM, first compound 0.003 µM
[3] = second compound 0.1 µM, first compound 0.00949 µM
[4] = second compound 0.1 µM, first compound 0.03 µM
[5] = second compound 0.1 µM, first compound 0.0949 µM
[6] = second compound 0.1 µM, first compound 0.3 µM
[7] = second compound 0.316 µM, first compound 0.000949 µM
[8] = second compound 0.316 µM, first compound 0.003 µM
[9] = second compound 0.316 µM, first compound 0.00949 µM
[10] = second compound 0.316 µM, first compound 0.03 µM
[11] = second compound 0.316 µM, first compound 0.0949 µM
[12] = second compound 0.316 µM, first compound 0.3 µM
[13] = second compound 1 µM, first compound 0.000949 µM
[14] = second compound 1 µM, first compound 0.003 µM
[15] = second compound 1 µM, first compound 0.00949 µM
[16] = second compound 1 µM, first compound 0.03 µM
[17] = second compound 1 µM, first compound 0.0949 µM
[18] = second compound 1 µM, first compound 0.3 µM
[19] = second compound 3.16 µM, first compound 0.000949 µM
[20] = second compound 3.16 µM, first compound 0.003 µM
[21] = second compound 3.16 µM, first compound 0.00949 µM
[22] = second compound 3.16 µM, first compound 0.03 µM
[23] = second compound 3.16 µM, first compound 0.0949 µM
[24] = second compound 3.16 µM, first compound 0.3 µM
[25] = second compound 10 µM, first compound 0.000949 µM
[26] = second compound 10 µM, first compound 0.003 µM
[27] = second compound 10 µM, first compound 0.00949 µM
[28] = second compound 10 µM, first compound 0.03 µM
[29] = second compound 10 µM, first compound 0.0949 µM
[30] = second compound 10 µM, first compound 0.3 µM
[31] = second compound 0.1 µM, first compound 0.0316 µM
[32] = second compound 0.1 µM, first compound 0.1 µM
[33] = second compound 0.1 µM, first compound 0.316 µM
[34] = second compound 0.1 µM, first compound 1 µM
[35] = second compound 0.1 µM, first compound 3.16 µM
[36] = second compound 0.1 µM, first compound 10 µM
[37] = second compound 0.316 µM, first compound 0.0316 µM
[38] = second compound 0.316 µM, first compound 0.1 µM
[39] = second compound 0.316 µM, first compound 0.316 µM
[40] = second compound 0.316 µM, first compound 1 µM
[41] = second compound 0.316 µM, first compound 3.16 µM
[42] = second compound 0.316 µM, first compound 10 µM
[43] = second compound 1 µM, first compound 0.0316 µM
[44] = second compound 1 µM, first compound 0.1 µM
[45] = second compound 1 µM, first compound 0.316 µM
[46] = second compound 1 µM, first compound 1 µM
[47] = second compound 1 µM, first compound 3.16 µM
[48] = second compound 1 µM, first compound 10 µM
[49] = second compound 3.16 µM, first compound 0.0316 µM
[50] = second compound 3.16 µM, first compound 0.1 µM
[51] = second compound 3.16 µM, first compound 0.316 µM
[52] = second compound 3.16 µM, first compound 1 µM
[53] = second compound 3.16 µM, first compound 3.16 µM
[54] = second compound 3.16 µM, first compound 10 µM
[55] = second compound 10 µM, first compound 0.0316 µM
[56] = second compound 10 µM, first compound 0.1 µM
[57] = second compound 10 µM, first compound 0.316 µM
[58] = second compound 10 µM, first compound 1 µM
[59] = second compound 10 µM, first compound 3.16 µM
[60] = second compound 10 µM, first compound 10 µM
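Further: spheroids exposed to compounds for seven days before the viability read.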
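Wherever viability, T/C is given: luminescent signal used as a stand-in for viable cell amount; 100% = DMSO vehicle control wells.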

CC(C)CC(NC(=O)C(Cc1ccccc1)NC(=O)c1cnccn1)B(O)O (stereo not given) + CC(CO)NC(=O)c1cc(-c2ccc(Cl)cc2)nn(-c2cnn(C)c2)c1=O was tested, and the IC50 (second compound 0.1 µM) was 5.95 nM, the IC50 (second compound 0.316 µM) was 5.9 nM and the IC50 (second compound 1 µM) was 6.06 nM. For the same molecule, the IC50 (second compound 3.16 µM) was 5.87 nM, the IC50 (second compound 10 µM) was 5.37 nM and the viability, T/C [1] was 117%. The viability, T/C [2] was 120%, the viability, T/C [3] was 3.22% and the viability, T/C [4] was 0.06%. For the same molecule, the viability, T/C [5] was 0.07%, the viability, T/C [6] was 0.11% and the viability, T/C [7] was 121%. The viability, T/C [8] was 117%, the viability, T/C [9] was 3.12% and the viability, T/C [10] was 0.03%. It also gave a viability, T/C [11] of 0.05%, a viability, T/C [12] of 0.11% and a viability, T/C [13] of 110%. The viability, T/C [14] was 132%, the viability, T/C [15] was 4.62% and the viability, T/C [16] was 0.06%. It also gave a viability, T/C [17] of 0.04%, a viability, T/C [18] of 0.11% and a viability, T/C [19] of 114%. For the same molecule, the viability, T/C [20] was 118%, the viability, T/C [21] was 2.71% and the viability, T/C [22] was 0.06%. It also gave a viability, T/C [23] of 0.05%, a viability, T/C [24] of 0.12% and a viability, T/C [25] of 96.3%. The viability, T/C [26] was 100%, the viability, T/C [27] was 2.68% and the viability, T/C [28] was 0.15%. It also gave a viability, T/C [29] of 0.15% and a viability, T/C [30] of 0.23%.

For CCc1c2c(nc3ccc(O)cc13)-c1cc3c(c(=O)n1C2)COC(=O)[C@]3(O)CC + CC(CO)NC(=O)c1cc(-c2ccc(Cl)cc2)nn(-c2cnn(C)c2)c1=O, the IC50 (second compound 0.1 µM) was < 0.949 nM, the IC50 (second compound 0.316 µM) was < 0.949 nM and the IC50 (second compound 1 µM) was < 0.949 nM. For the same molecule, the IC50 (second compound 3.16 µM) was < 0.949 nM, the IC50 (second compound 10 µM) was < 0.949 nM and the viability, T/C [1] was 38.7%. For the same molecule, the viability, T/C [2] was 30.1%, the viability, T/C [3] was 22.8% and the viability, T/C [4] was 16.7%. It also gave a viability, T/C [5] of 10.3%, a viability, T/C [6] of 6.69% and a viability, T/C [7] of 38.5%. For the same molecule, the viability, T/C [8] was 27.1%, the viability, T/C [9] was 21.9% and the viability, T/C [10] was 15.6%. For the same molecule, the viability, T/C [11] was 8.35%, the viability, T/C [12] was 5.97% and the viability, T/C [13] was 37.8%. It also gave a viability, T/C [14] of 28.9%, a viability, T/C [15] of 24.8% and a viability, T/C [16] of 16.4%. The viability, T/C [17] was 8.38%, the viability, T/C [18] was 6.06% and the viability, T/C [19] was 31.3%. For the same molecule, the viability, T/C [20] was 25.4%, the viability, T/C [21] was 24.5% and the viability, T/C [22] was 15.3%. It also gave a viability, T/C [23] of 9.33%, a viability, T/C [24] of 6.42% and a viability, T/C [25] of 27.5%. The viability, T/C [26] was 25.6%, the viability, T/C [27] was 22.6% and the viability, T/C [28] was 15.4%. The viability, T/C [29] was 8.39% and the viability, T/C [30] was 6.77%.

For Nc1ccccc1NC(=O)c1ccc(CNC(=O)OCc2cccnc2)cc1 + CC(CO)NC(=O)c1cc(-c2ccc(Cl)cc2)nn(-c2cnn(C)c2)c1=O, the IC50 (second compound 0.1 µM) was 560 nM, the IC50 (second compound 0.316 µM) was 486 nM and the IC50 (second compound 1 µM) was 496 nM. For the same molecule, the IC50 (second compound 3.16 µM) was 447 nM, the IC50 (second compound 10 µM) was 211 nM and the viability, T/C [31] was 89%. For the same molecule, the viability, T/C [32] was 95.2%, the viability, T/C [33] was 67.4% and the viability, T/C [34] was 30.2%. It also gave a viability, T/C [35] of 10.7%, a viability, T/C [36] of 0.66% and a viability, T/C [37] of 84.3%. It also gave a viability, T/C [38] of 87.1%, a viability, T/C [39] of 57.2% and a viability, T/C [40] of 32.9%. The viability, T/C [41] was 8.17%, the viability, T/C [42] was 0.43% and the viability, T/C [43] was 93%. The viability, T/C [44] was 94.7%, the viability, T/C [45] was 61.8% and the viability, T/C [46] was 28.1%. For the same molecule, the viability, T/C [47] was 8.39%, the viability, T/C [48] was 0.38% and the viability, T/C [49] was 83.7%. The viability, T/C [50] was 79.7%, the viability, T/C [51] was 62.2% and the viability, T/C [52] was 22.2%. For the same molecule, the viability, T/C [53] was 7.6%, the viability, T/C [54] was 0.3% and the viability, T/C [55] was 70.3%. For the same molecule, the viability, T/C [56] was 68.8%, the viability, T/C [57] was 39.2% and the viability, T/C [58] was 16.6%. For the same molecule, the viability, T/C [59] was 7.12% and the viability, T/C [60] was 0.32%.

For O=C(c1cc(Cc2n[nH]c(=O)c3ccccc23)ccc1F)N1CCN(C(=O)C2CC2)CC1 + CC(CO)NC(=O)c1cc(-c2ccc(Cl)cc2)nn(-c2cnn(C)c2)c1=O, the IC50 (second compound 0.1 µM) was 6180 nM, the IC50 (second compound 0.316 µM) was 6460 nM and the IC50 (second compound 1 µM) was 8510 nM. It also gave an IC50 (second compound 3.16 µM) of 7340 nM, an IC50 (second compound 10 µM) of 4640 nM and a viability, T/C [31] of 99.2%. The viability, T/C [32] was 108%, the viability, T/C [33] was 102% and the viability, T/C [34] was 90.3%. It also gave a viability, T/C [35] of 69.9%, a viability, T/C [36] of 36.1% and a viability, T/C [37] of 96.3%. The viability, T/C [38] was 97.2%, the viability, T/C [39] was 100% and the viability, T/C [40] was 88.5%. It also gave a viability, T/C [41] of 74.9%, a viability, T/C [42] of 35.1% and a viability, T/C [43] of 104%. For the same molecule, the viability, T/C [44] was 95.3%, the viability, T/C [45] was 98% and the viability, T/C [46] was 93.7%. For the same molecule, the viability, T/C [47] was 71.6%, the viability, T/C [48] was 46.5% and the viability, T/C [49] was 98.1%. For the same molecule, the viability, T/C [50] was 93.2%, the viability, T/C [51] was 87.9% and the viability, T/C [52] was 90.9%. It also gave a viability, T/C [53] of 71.9%, a viability, T/C [54] of 41.7% and a viability, T/C [55] of 80%. For the same molecule, the viability, T/C [56] was 86.3%, the viability, T/C [57] was 88.5% and the viability, T/C [58] was 69.2%. For the same molecule, the viability, T/C [59] was 58.4% and the viability, T/C [60] was 36.5%.
